From US11932602B2, “Method for preparing nicotinamide mononucleotide cocrystal” (BONTAC BIO-ENGINEERING(SHENZHEN) CO., LTD, priority 2021, dated 2024)

Details: screened with a sieve (1.00 mm, No. 18), poured into glass graduated measuring cylinder, apparent volume
Description: The tops were scraped flat. The apparent volumes were recorded. The bulk densities were calculated.

**Q.** With `NC(=O)c1ccc[n+]([C@@H]2O[C@H](COP(=O)([O-])O)[C@@H](O)[C@H]2O)c1` [Form 1, nicotinamide mononucleotide anhydrous crystal (form 1)] as the molecule, how does the Bulk density read?
**A.** 0.15 g/mL
